Reference: patent US20250241978A1, “PEPTIDE FOR PREVENTION OR TREATMENT OF COVID-19” (priority 2020, published 2025)

Test system: severe COVID-19 patients
Experiment: Observation of seriously ill COVID-19 ICU patients treated with orally inhaled solnatide (Example 2)
Description: Community patients with serious health conditions were admitted to a local hospital for examination. In some of these patients, COVID-19 was confirmed by positive testing for SARS-CoV-2 by nasopharyngeal swab and real-time RT-PCR.
Following worsening of conditions, seriously ill COVID-19 patients were admitted to the ICU of the hospital.
These patients were treated with placebo only in addition to standard critical care treatment and life support.
During an observation period of 7 days, patient-centred clinical parameters which reflect the severity of COVID-19 were recorded.
The SOFA score was used to track a patient's status during the stay in an intensive care unit (ICU) to determine the extent of the patient's organ function or rate of failure.

cyclo-CGQRETPEGAEAKPWYC [solnatide]
mean SOFA score at end of treatment period (COVID-19 ICU patients, orally inhaled solnatide twice daily plus standard critical care, after 7-day treatment period, FIG. 1): 8 | mean SOFA score at start of treatment period (COVID-19 ICU patients, orally inhaled solnatide twice daily plus standard critical care, start of 7-day treatment, FIG. 1): 12 | mean body temperature, change during treatment (COVID-19 ICU patients, orally inhaled solnatide twice daily, 7-day treatment period, elevated at initiation, FIG. 3): decreased | mean dynamic lung compliance at end of treatment period (COVID-19 ICU patients, orally inhaled solnatide twice daily, after 7-day treatment period, FIG. 2): 50 mL/cm H2O | mean dynamic lung compliance at start of treatment period (COVID-19 ICU patients, orally inhaled solnatide twice daily, start of 7-day treatment, FIG. 2): approx. 35 mL/cm H2O | patients who died within 28 days after onset of COVID-19 symptoms (severe COVID-19 patients treated with solnatide, comparator cohort: 3 patients died): none
